This is an account of results in patent US10308642B2, “Anti-hepatitis B virus agent” (FUJIFILM Toyama Chemical Co., Ltd., priority 2015, dated 2019).

The structures appear in SMILES notation. Like-named read-outs stand apart in the source and are kept apart here.

A word on the IC50: it is the concentration that gives 50% inhibition.

For assay [1], the system named is HBV. Kind of assay: Anti-HBV assay in HepG2.2.15 cells (HBV DNA by real-time PCR, HBsAg by chemiluminescent enzyme immunoassay in culture supernatant). Conditions: Hepatitis B virus, 144 h, 6 days treatment. The format is cell-based. The protocol: The anti-HBV activity of compounds 1 to 16 was evaluated as follows by using HepG2.2.15 cells (Proc. Natl. Acad. Sci. USA, 84, 1005-1009, 1987), which are obtained by introducing the HBV genome into hepatoblastoma cell line, HepG2, and persistently produce the virus.
The following was used as a medium: DMEM/F-12,GlutaMAX(manufactured by Invitrogen)+5 μg/mL insulin (manufactured by Wako)+1% penicillin/streptomycin(manufactured by Sigma)+10 mmol/L HEPES(manufactured by Sigma)+50 μmol/L hydrocortisone(manufactured by Sigma)+10% FBS
A mixture of each test compound with dimethyl sulfoxide (DMSO) was added to the medium to obtain a final concentration of DMSO of 1% (v/v), and thus, test solutions containing the test compound in various concentrations were prepared. In addition, a test solution obtained by adding DMSO alone to the medium to obtain a final concentration of 1% (v/v) was prepared as a control without drug.
(1) The HepG2.2.15 cells were suspended in the medium and prepared a cell suspension at 1.5×10^5 cells/mL. The suspension was seeded in a 96-well microtiter plate (100 μL/well) and the plate was incubated in a 5% CO2 incubator at 37° C. for 1 day.
(2) After removing the culture supernatant, the cells were washed twice with PBS(−) (100 μL/well) and then once with the medium (100 μL/well).
(3) Each test solution was added to the plate (100 μL/well), and the plate was incubated in a 5% CO2 incubator at 37° C. for 3 days.
(4) After removing the culture supernatant, the test solution was added to the plate again (100 μL/well) and the plate was incubated in a 5% CO2 incubator at 37° C. for 3 days.
(5) The culture supernatant was collected and treated with a mixture of Buffer AL (manufactured by QIAGEN) and Proteinase K (manufactured by Invitrogen). The amount of HBV DNA in the solution was quantified by real-time PCR. In addition, the amount of HBsAg (hepatitis B surface antigen) in the culture supernatant was quantified by chemiluminescent enzyme immunoassay using a Lumipulse HBsAg-HQ (manufactured by Fujirebio Inc.). The relative viral load (%) of a well with the compound to a well without the compound was calculated. An IC50 of each compound was calculated using the FORECAST function (linear regression method) of Microsoft Excel 2007 by plotting the logarithm of the concentration against the relative viral load as a real number.
For orientation: Real-time PCR tracks product formation cycle by cycle.

Assay [2] relates to HBV. The assay can be described thus: Anti-HBV assay in PXB-cells (fresh human hepatocytes from PXB mouse infected with HBV genotype AeUS). The format is cell-based, hepatitis B virus (HBV). Particulars: 10 μmol/L. The procedure: The anti-HBV activity of compound 8 was evaluated as follows by using fresh human hepatocyte (The PXB-cells were produced by PhenixBio Co., Ltd.) derived from a PXB mouse (a chimeric mouse with human hepatocyte).
The following was used as a medium:
500 mL DMEM (manufactured by Sigma)+0.25 μg/mL insulin (manufactured by Wako)+1% penicillin/streptomycin. (manufactured by Sigma)+20 mmol/L HEPES (manufactured by Sigma)+15 μg/mL L-proline (manufactured by Sigma)+50 nmol/L dexamethasone (manufactured by Sigma)+5 ng/mL EGF (manufactured by Peprotech)+0.1 mmol/L ascorbic acid 2-phosphate (manufactured by Wako)+10% FBS+2% DMSO
Compound 8 was further added to the medium to prepare a 10 μmol/L test solution.
(1) The PXB-cells seeded at a 2.1×10^5 cells/cm^2 in a 48-well microliter plate were incubated in a 5% CO2 incubator at 37° C. for 5 days.
(2) HBV derived from PXB mouse serum (genotype AeUS) was added to the medium supplemented with 4% PEG-8000. The PXB cells were infected with this solution at about 10 copies/cell (250 μL/well) and the plate was incubated in a 5% CO2 incubator at 37° C. for 1 day.
(3) After the culture supernatant had been removed, the cells were washed three times with DMEM supplemented with 10% FBS and 1% penicillin/streptomycin. The medium was added to the plate (250 μL/well) and the plate was incubated in a 5% CO2 incubator at 37° C. for 1 day.
(4) After removing the culture supernatant, the cells were washed three times with DMEM supplemented with 10% FBS and 1% penicillin/streptomycin. […]
(11) The collected culture supernatant on day 32 post infection was purified using a QIAamp DNA Blood Mini Kit (manufactured by QIAGEN) and the amount of HVB DNA was quantified by real-time PCR. In addition, the amount of HBsAg (hepatitis B surface antigen) in the culture supernatant was quantified by chemiluminescent enzyme immunoassay using a Lumipulse HBsAg-HQ (manufactured by Fujirebio Inc.). The relative viral load (%) of a well with the compound to a well without the compound was calculated.

The mark [3] stands for this setting: HBV DNA in culture supernatant, real-time PCR, read-out: IC50 (μM) HBV-DNA.
[4] abbreviates: HBsAg in culture supernatant, chemiluminescent enzyme immunoassay, read-out: IC50 (μM) HBsAg.
[5] abbreviates: culture supernatant on day 32 post infection, relative to well without compound.

Take `O=C(O)c1cn(-c2ccc(F)cc2)c(-c2ccc(N3CCCC3)cc2)cc1=O` [Compound 1]: the results for the IC50 in the assay on HBV [1] (setting [3]) and in the assay with HBV [1] (setting [4]) were 0.051 µM and 1.1 µM, respectively.
The corresponding values for `O=C(O)c1cn(-c2ccc(F)cc2)c(-c2sccc2-c2ccc([N+](=O)[O-])cc2)cc1=O` [Compound 2] are 0.16 µM and 0.79 µM.
In the same order, the values of `CN(C)c1ccc(-c2cc(=O)c(C(=O)O)cn2-c2cccc(F)c2)cc1` [Compound 3] are 0.86 µM and 5.7 µM.
Regarding `O=C(O)c1cn(-c2ccc(F)cc2F)c(-c2ccc(N3CCCC3)cc2)cc1=O` [Compound 4], the values for the 50% inhibitory concentration (IC50) with HBV [1] (setting [3]) and with HBV [1] (setting [4]) were 0.088 µM and 2.1 µM, respectively.
Regarding `COc1ccc(-n2cc(C(=O)O)c(=O)cc2-c2ccc(N(C)C)cc2)cc1` [Compound 5], the IC50 in the assay with HBV [1] (setting [3]) came to 0.33 µM; in the assay with HBV [1] (setting [4]), 4.6 µM.
The corresponding values for `O=C(O)c1cn(-c2ccc(F)cc2)c(-c2cc3ccccc3s2)cc1=O` [Compound 6] are 1.1 µM and 5.8 µM.
Turning to `CN(C)c1ccc(-c2cc(=O)c(C(=O)O)cn2-c2ccccc2F)cc1` [Compound 7], the figures for the IC50 with HBV [1] (setting [3]) and in the assay on HBV [1] (setting [4]) were 1.1 µM and 4.6 µM, respectively.
In the case of `CN(C)c1ccc(-c2cc(=O)c(C(=O)O)cn2-c2ccc3c(c2)OCO3)cc1` [Compound 8], in the assay with HBV [1] (setting [3]), the IC50 stood at 0.25 µM. Also, the IC50 in the assay on HBV [1] (setting [4]) turned out to be 1.2 µM. For the same compound, in the assay on HBV [2] (setting [5]), the “relative viral load with respect to the amount of HBV DNA” value worked out at 16% and the “relative viral load with respect to the amount of HBsAg” value is 29%. The anti-HBV activity entry in the assay with HBV [2] (statement in words) is reported as “excellent anti-HBV activity”.
On to `O=C(O)c1cn(-c2ccc(F)cc2F)c(-c2cc3ccccc3s2)cc1=O` [Compound 9], for which the IC50 with HBV [1] (setting [3]) is 0.23 µM; with HBV [1] (setting [4]) it was 3.6 µM.
As to `CN(C)c1ccc(-c2cc(=O)c(C(=O)O)cn2-c2ccccc2O)cc1` [Compound 10], the IC50 in the assay on HBV [1] (setting [3]) was determined as 2.1 µM; in the assay with HBV [1] (setting [4]) it was 6.9 µM.
As to `Cc1cc(-n2cc(C(=O)O)c(=O)cc2-c2ccc(N(C)C)cc2)ccc1O` [Compound 11], the IC50 with HBV [1] (setting [3]) turned out to be 0.8 µM; in the assay with HBV [1] (setting [4]) it was 3.7 µM.
With `COc1ccc(-n2cc(C(=O)O)c(=O)cc2-c2ccc(N(C)C)cc2)c(F)c1` [Compound 12], the results for the IC50 with HBV [1] (setting [3]) and with HBV [1] (setting [4]) were 1.4 µM and 4.9 µM, respectively.
`Cc1cc(O)ccc1-n1cc(C(=O)O)c(=O)cc1C1CCC(Br)C(Br)C1` (centres unmarked) [Compound 13]: the figures for the IC50 in the assay with HBV [1] (setting [3]) and in the assay on HBV [1] (setting [4]) were 0.49 µM and 1.8 µM, respectively.
As to `O=C(O)c1cn(-c2ccc(F)cc2)c(-c2ccc(-c3cccs3)cc2)cc1=O` [Compound 14], the IC50 with HBV [1] (setting [3]) worked out at 0.91 µM; in the assay on HBV [1] (setting [4]), 4.2 µM.
Consider `CN(C)c1ccc(-c2cc(=O)c(C(=O)O)cn2-c2cc(Cl)c(O)c(Cl)c2)cc1` [Compound 15], for which the IC50 in the assay with HBV [1] (setting [3]) was 4.5 µM; with HBV [1] (setting [4]), 11 µM.
The corresponding values for `CNc1ccc(-c2cc(=O)c(C(=O)O)cn2-c2ccc(F)cc2)cc1` [Compound 16] are 7.9 µM and 35 µM.
